Measured values as given in PubChem BioAssay AID1053198 (The Scripps Research Institute Molecular Screening Center, 2014).
The source made the active and inactive calls. No rule for the calls is given here.

Assay: T. brucei MetRS enzyme inhibitors, late-stage follow-up, biochemical, radioactivity, assay provider, round 2 (AID 1053198)
Conditions: purified enzyme, radiolabel aminoacylation, 120 min, stronger effect = higher value

Compound | inhibition (at 10 µM) | inhibition (inhibition, at 1 µM)
CCN(CC)C(=O)C(=O)c1cn(CC(=O)Nc2cc(Br)cc(C(F)(F)F)c2)c2ccccc12 | 101% | 95.8%
CCN(CC)C(=O)C(=O)c1cn(CC(=O)Nc2cc(C(F)(F)F)cc(C(F)(F)F)c2)c2ccccc12 | 100% | 90.3%
CCN(CC)C(=O)C(=O)c1cn(CC(=O)Nc2cc(Cl)cc(C(F)(F)F)c2)c2ccccc12 | 100% | 95.2%
CCN(CC)C(=O)C(=O)c1cn(CC(=O)Nc2cccc(C(F)(F)F)c2)c2cc(OC)ccc12 | 4.41% (inactive) | -4.41%
CCN(CC)C(=O)C(=O)c1cn(CC(=O)Nc2cc(Oc3ccccc3)cc(C(F)(F)F)c2)c2ccccc12 | 98.3% | 95.6%
CCN(CC)C(=O)C(=O)c1cn(CC(=O)Nc2cc(C)cc(C(F)(F)F)c2)c2ccccc12 | 100% | 96.2%
